Patent publication US20260216347A1, “Substituted Imidazo-Based Compounds as Ligand Directed Degraders of IRAK3” (Celgene Corporation, priority 2022, published 2026)

Columns and labels:
[1] = molecular target: T1, IRAK3 (Homo sapiens, UniProt Q9Y616); test: IRAK endogenous HTRF degradation assay (Total-IRAK3 HTRF kit); assay type: cell-based; details: overnight incubation, lowest percentage of protein remaining
T1 construct: IRAK Endogenous HTRF Degradation Assay; endogenous in cells
T1 sequence (Q9Y616 1-596): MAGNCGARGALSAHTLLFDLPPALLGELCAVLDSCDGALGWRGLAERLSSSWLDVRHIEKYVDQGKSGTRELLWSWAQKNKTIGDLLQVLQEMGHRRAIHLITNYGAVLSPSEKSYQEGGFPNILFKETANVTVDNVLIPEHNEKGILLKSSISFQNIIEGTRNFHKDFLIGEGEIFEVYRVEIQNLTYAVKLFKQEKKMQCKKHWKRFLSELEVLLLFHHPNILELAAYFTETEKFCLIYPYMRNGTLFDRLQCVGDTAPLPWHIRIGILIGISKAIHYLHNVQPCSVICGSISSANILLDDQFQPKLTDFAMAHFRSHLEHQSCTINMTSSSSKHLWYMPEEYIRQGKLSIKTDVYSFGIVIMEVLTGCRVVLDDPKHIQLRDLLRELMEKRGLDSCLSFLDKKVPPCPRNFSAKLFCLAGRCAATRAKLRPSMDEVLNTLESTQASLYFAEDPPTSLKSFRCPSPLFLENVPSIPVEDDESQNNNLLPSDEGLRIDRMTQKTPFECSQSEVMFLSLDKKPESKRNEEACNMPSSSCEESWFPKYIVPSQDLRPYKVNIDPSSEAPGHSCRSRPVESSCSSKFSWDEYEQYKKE
Method in brief: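 Cells (~50 k) incubated overnight with 3-fold serial dilutions of compound, then lysed; total IRAK3 read by HTRF (665/615 nm ratio ×10,000), normalized to DMSO as 100%. EC50 from four-parameter logistic fit; Dmax = 100 − Ymin (lowest % protein remaining); DC50 = concentration giving 50% degradation.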

[2] = molecular target: T1, IRAK3; test: IRAK3 biochemical binding assay (LanthaScreen Eu Kinase Binding, TR-FRET)
Method in brief: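 TR-FRET tracer-displacement binding with 10 nM IRAK3, 2 nM Eu-anti-GST antibody and 10 nM tracer in 50 mM HEPES pH 7.4, MgCl2, 1 mM EGTA, 0.01% Brij-35. Compounds in 3-fold dilutions, 1 h at room temperature. 665/615 nm ratio gave % inhibition; IC50 and Hill slope from dose-response fit.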

SMILES | IRAK3 HTRF degradation Ymin [1] [%] | IC50 [2] [nM]
Cc1cc(-c2cnc(Nc3cnn(C4CCN(CCN5CCN(c6cccc(C7CCC(=O)NC7=O)c6)CC5)CC4)c3)c3nccn23)c(F)cc1F (stereo not shown) [Compound 31, 3-(3-(4-(2-(4-(4-((5-(2,4-difluoro-5-methylphenyl)imdazo [1,2-a]pyrazin-8-yl)amino)-1H-pyrazol-1-yl)piperidin-1-yl)ethyl)piperazin-1-yl)phenyl) piperidine-2,6-dione] | 40 | 6.1
Cc1cc(-c2cnc(Nc3cnn(C4CCN(CCN5CCN(c6ccc(C7CCC(=O)NC7=O)cc6)CC5)CC4)c3)c3nccn23)ccc1F (stereo not shown) [Compound 33, 3-(4-(4-(2-(4-(4-((5-(4-fluoro-3-methylphenyl)imdazo [1,2-a]pyrazin-8-yl)amino)-1H-pyrazol-1-yl)piperidin-1-yl)ethyl)piperazin-1-yl)phenyl) piperidine-2,6-dione] | 13 | 12
Cc1cc(-c2cnc(Nc3cnn([C@H]4CCN(CCN5CCN(c6ccc(C7CCC(=O)NC7=O)cc6)C[C@H]5C)[C@@H](C)C4)c3)c3nccn23)c(F)cc1F (stereo partly drawn) [Compound 35, 3-(4-((R)-4-(2-((2S,4S)-4-(4-((5-(2,4-difluoro-5-methylphenyl)imdazo [1,2-a]pyrazin-8-yl)amino)-1H-pyrazol-1-yl)-2-methylpiperidin-1-yl)ethyl)-3-methylpiperazin-1-yl)phenyl) piperidine-2,6-dione] | 7.6 | 0.65
Cc1cc(-c2cnc(Nc3cnn([C@H]4CCN(CCN5CCN(c6ccc(C7CCC(=O)NC7=O)cc6)CC5)C[C@@H]4F)c3)c3nccn23)c(F)cc1F (stereo partly drawn) [Compound 72, 3-(4-(4-(2-((3S,4S)-4-(4-((5-(2,4-difluoro-5-methylphenyl)imdazo [1,2-a]pyrazin-8-yl)amino)-1H-pyrazol-1-yl)-3-fluoropiperidin-1-yl)ethyl)piperazin-1-yl)phenyl) piperidine-2,6-dione] | 8.3 | 1.2
O=C1CCC(c2ccc(N3CCN(CCN4CCC(n5cc(Nc6ncc(-c7ccc(F)cc7)n7ccnc67)cn5)CC4)CC3)cc2)C(=O)N1 (stereo not shown) [Compound 74, 3-(4-(4-(2-(4-(4-((5-(4-fluorophenyl)imidazo [1,2-a]pyrazin-8-yl)amino)-1H-pyrazol-1-yl)piperidin-1-yl)ethyl)piperazin-1-yl)phenyl) piperidine-2,6-dione] | 9.8 | 5.6
O=C1CCC(c2ccc(N3CCN(CCN4CCC(n5cc(Nc6ncc(-c7ccccc7F)n7ccnc67)cn5)CC4)CC3)cc2)C(=O)N1 (stereo not shown) [Compound 75, 3-(4-(4-(2-(4-(4-((5-(2-fluorophenyl)imidazo [1,2-a]pyrazin-8-yl)amino)-1H-pyrazol-1-yl)piperidin-1-yl)ethyl)piperazin-1-yl)phenyl) piperidine-2,6-dione] | 9.8 | 14
Cc1cc(-c2cnc(Nc3cnn(C4CCN(CCN5CCN(c6ccc([C@]7(C)CCC(=O)NC7=O)cc6)CC5)CC4)c3)c3nccn23)c(F)cc1F [Compound 76, (S)-3-(4-(4-(2-(4-(4-((5-(2,4-difluoro-5-methylphenyl)imdazo [1,2-a]pyrazin-8-yl)amino)-1H-pyrazol-1-yl)piperidin-1-yl)ethyl)piperazin-1-yl)phenyl)-3-methylpiperidine-2,6-dione] | 64 | 1.7
Cc1cc(-c2cnc(Nc3cnn(C4CCN(CCN5CCN(c6ccc([C@@]7(C)CCC(=O)NC7=O)cc6)CC5)CC4)c3)c3nccn23)c(F)cc1F [Compound 77, (R)-3-(4-(4-(2-(4-(4-((5-(2,4-difluoro-5-methylphenyl)imdazo [1,2-a]pyrazin-8-yl)amino)-1H-pyrazol-1-yl)piperidin-1-yl)ethyl)piperazin-1-yl)phenyl)-3-methylpiperidine-2,6-dione] | 8.3 | 2
O=C1CCC(c2ccc(N3CCN(CCN4CCC(n5cc(Nc6ncc(-c7cccc(F)c7)n7ccnc67)cn5)CC4)CC3)cc2)C(=O)N1 (stereo not shown) [Compound 80, 3-(4-(4-(2-(4-(4-((5-(3-fluorophenyl)imidazo [1,2-a]pyrazin-8-yl)amino)-1H-pyrazol-1-yl)piperidin-1-yl)ethyl)piperazin-1-yl)phenyl) piperidine-2,6-dione] | 11 | 140
Cc1cc(-c2cnc(Nc3cnn([C@H]4CC[C@H](CCN5CCN(c6ccc([C@@]7(C)CCC(=O)NC7=O)cc6)CC5)CC4)c3)c3nccn23)c(F)cc1F [Compound 81, (R)-3-(4-(4-(2-((trans)-4-(4-((5-(2,4-difluoro-5-methylphenyl)imidazo[1,2-a]pyrazin-8-yl)amino)-1H-pyrazol-1-yl)cyclohexyl)ethyl)piperazin-1-yl)phenyl)-3-methylpiperidine-2,6-dione] | 7.8 | 10
Cc1cc(-c2cnc(Nc3cnn([C@H]4CC[C@H](CCN5CCN(c6ccc([C@]7(C)CCC(=O)NC7=O)cc6)CC5)CC4)c3)c3nccn23)c(F)cc1F [Compound 82, (S)-3-(4-(4-(2-((trans)-4-(4-((5-(2,4-difluoro-5-methylphenyl)imidazo[1,2-a]pyrazin-8-yl)amino)-1H-pyrazol-1-yl)cyclohexyl)ethyl)piperazin-1-yl)phenyl)-3-methylpiperidine-2,6-dione] | 40 | 17
